Assay results reported in US20260209249A1, “NOVEL TRICYCLIC COMPOUND AS KRAS G12D INHIBITOR, AND USE THEREOF” (SK Biopharmaceuticals Co., priority 2022, published 2026).
pIC50: −log10 of the molar value.

Key:
[1] = tested on: ERK phosphorylation (pERK) induced by KRAS G12D mutation; assay: Inhibitory activity against ERK phosphorylation (pERK) induced by KRAS G12D mutation, immunofluorescence assay in AsPC-1 cells; type: cell-based; conditions: Homo sapiens, ASPC1, 3 h drug treatment, pERK (Thr202/Tyr204) signal normalized to DAPI
Outline: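 AsPC-1 cells attached 16 h, then treated 3 h with 3-fold dilutions from 10 μM top. Fixed, permeabilized, immunostained for pERK (Thr202/Tyr204) with Alexa 488 secondary; high-content imaging, signal normalized to DAPI and to DMSO, IC50 from four-parameter fit.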

[2] = molecular target: T1, GDP-KRAS G12D mutant protein (Homo sapiens, UniProt P01116, G12D); assay: Differential scanning fluorimetry (DSF) binding affinity to GDP-KRAS G12D mutant protein; conditions: DSF thermal shift, 10 μM compound, 4 μg KRAS protein
T1 construct: purchased Daegu Gyeongbuk Medical Innovation Foundation (DGMIF), made to order
Outline: (§1)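 Thermal shift ΔTm was measured at 10 μM compound over a 25–99 °C ramp (0.05 °C/s), read at 580 nm ex/623 nm em with SYPRO Orange (2×). The protein (4 μg) was preincubated with compound for 30 min at room temperature, in 50 mM HEPES pH 7.5 for GppNHp-KRAS G12D or in kit buffer for GDP-KRAS G12D.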

[3] = molecular target: T2, GppNHp-KRAS G12D mutant protein (Homo sapiens, UniProt P01116, G12D); assay: Differential scanning fluorimetry (DSF) binding affinity to GppNHp-KRAS G12D mutant protein; conditions: DSF thermal shift, 10 μM compound, 4 μg KRAS protein, 50 mM HEPES (pH 7.5)
T2 construct: purchased Daegu Gyeongbuk Medical Innovation Foundation (DGMIF), made to order
Outline: as §1

[4] = tested on: KRAS G12D mutant pancreatic cancer cell line AsPC-1; assay: Cell viability assay using KRAS G12D mutant cells (AsPC-1, 3D culture, celltiter-glo 3D); type: cell-based; conditions: Homo sapiens, ASPC1, 5th day after compound treatment
Outline: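 AsPC-1 cells in 3D culture, 1000 cells/well, treated next day with 1/5 serial dilutions from 10 μM or 50 μM, 1:1 v/v. Viability read by CellTiter-Glo 3D on day 5, normalized to DMSO (100%) and untreated backgrounds; IC50 from four-parameter sigmoidal fit.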

| Structure (SMILES) | pIC50 [1] | GDP-KRAS G12D (ΔTmD, ° C.) [2] | GppNHp-KRAS G12D (ΔTmD, ° C.) [3] | pIC50 [4] |
| --- | --- | --- | --- | --- |
| CCc1c(F)ccc2cc(O)cc(-c3c(F)c4nc(OC[C@@]56CCCN5C/C(=C\F)C6)nc(N5C[C@H]6CC[C@@H](C5)N6)c4c4cn(C)nc34)c12 [Example 85, 4-(9-((1R,5S)-3,8-diazabicyclo[3.2.1]octan-3-yl)-5-fluoro-7-(((S,Z)-2-(fluoromethylene)tetrahydro-1H-pyrrolizin-7a(5H)-yl)methoxy)-2-methyl-2H-pyrazolo[4,3-f]quinazolin-4-yl)-5-ethyl-6-fluoronaphthalen-2-ol] | 8.15 | 15.24 °C | 12.43 °C | 7.96 |
| C#Cc1c(F)ccc2cc(O)cc(-c3c(F)c4nc(OC[C@@]56CC[C@@H](COC)N5CC(=C)C6)nc(N5C[C@H]6CC[C@@H](C5)N6)c4c4cn(C)nc34)c12 [Example 96, 4-(9-((1R,5S)-3,8-diazabicyclo[3.2.1]octan-3-yl)-5-fluoro-7-(((5S,7aS)-5-(methoxymethyl)-2-methylenetetrahydro-1H-pyrrolizin-7a(5H)-yl)methoxy)-2-methyl-2H-pyrazolo[4,3-n]quinazolin-4-yl)-5-ethynyl-6-fluoronaphthalen-2-ol] | 7.70 | 15.09 °C | 10.64 °C | 7.96 |
| C#Cc1c(F)ccc2cc(O)cc(-c3cc4nc(OCC5(CN6C[C@@H]7C[C@H]6CO7)CC5)nc(N5C[C@H]6CC[C@@H](C5)N6)c4n4ccnc34)c12 [Example 12, 4-(3-((1-(((1S,4S)-2-oxa-5-azabicyclo[2.2.1]heptan-5-yl)methyl)cyclopropyl)methoxy)-1-((1 R,5S)-3,8-diazabicyclo[3.2.1]octan-3-yl)imidazo[1′,2′:1,6]pyrido[3,2-d]pyrimidin-6-yl)-5-ethynyl-6-fluoronaphthalen-2-ol] | 5.97 | 9.61 °C | 2.65 °C | 6.01 |
| C#Cc1c(F)ccc2cc(O)cc(-c3cc4nc(OC[C@]56CC(=C)CN5C[C@@H](F)C6)nc(N5CC6CCC(C5)N6)c4n4ccnc34)c12 [Example 39, 4-(1-((1R,5S)-3,8-diazabicyclo[3.2.1]octan-8-yl)-3-(((2S,7aR)-2-fluoro-6-methylenetetrahydro-1H-pyrrolizin-7a(51H)-yl)methoxy)imidazo[1′,2′:1,6]pyrido[3,2-d]pyrimidin-6-yl)-5-ethynyl-6-fluoronaphthalen-2-ol] | 7.12 | 8.87 °C | 5.61 °C | 7.04 |
| C#Cc1c(F)ccc2cc(O)cc(-c3cc4nc(OCC5(CN6CCOC[C@H]6C)CC5)nc(N5C[C@H]6CC[C@@H](C5)N6)c4n4ccnc34)c12 [Example 8, 4-(1-((1 R,5S)-3,8-diazabicyclo[3.2.1]octan-3-yl)-3-((1-(((R)-3-methylmorpholino)methyl)cyclopropyl)methoxy)imidazo[1′,2′:1,6]pyrido[3,2-d]pyrimidin-6-yl)-5-ethynyl-6-fluoronaphthalen-2-ol] | 6.83 | 9.02 °C | 3.39 °C | 7.30 |
| CCc1c(F)ccc2cc(O)cc(-c3cc4nc(OC[C@@]56CCCN5C[C@H](F)C6)nc(N5C[C@H]6CC[C@@H](C5)N6)c4n4ccnc34)c12 [Example 1, 4-(1-((1 R,5S)-3,8-diazabicyclo[3.2.1]octan-3-yl)-3-(((2R,7aS)-2-fluorotetrahydro-1H-pyrrolizin-7a(5H)-yl)methoxy)imidazo[1′,2′:1,6]pyrido[3,2-d]pyrimidin-6-yl)-5-ethyl-6-fluoronaphthalen-2-ol] | 6.49 | 10.05 °C | 4.27 °C | 6.44 |
| C#Cc1c(F)ccc2cc(O)cc(-c3c(F)c4nc(OC[C@@]56CCCN5C/C(=C\F)C6)nc(N5C[C@H]6CC[C@@H](C5)N6)c4c4cn(C)nc34)c12 [Example 94, 4-(9-((1R,5S)-3,8-diazabicyclo[3.2.1]octan-3-yl)-5-fluoro-7-(((S,Z)-2-(fluoromethylene)tetrahydro-1H-pyrrolizin-7a(5H)-yl)methoxy)-2-methyl-2H-pyrazolo[4,3-f]quinazolin-4-yl)-5-ethynyl-6-fluoronaphthalen-2-ol] | 7.74 | 17.46 °C | 12.28 °C | 7.85 |
| C#Cc1c(F)ccc2cc(O)cc(-c3cc4nc(OC[C@@]56CCCN5C[C@H](F)C6)nc(N5C[C@H]6CC[C@@H](C5)N6)c4c4cn(C)nc34)c12 [Example 69, 4-(9-((1R,5S)-3,8-diazabicyclo[3.2.1]octan-3-yl)-7-(((2R,7aS)-2-fluorotetrahydro-1H-pyrrolizin-7a(5H)-yl)methoxy)-2-methyl-2H-pyrazolo[4,3-f]quinazolin-4-yl)-5-ethynyl-6-fluoronaphthalen-2-ol] | 6.77 | 11.68 °C | 7.24 °C | 6.72 |
| C#Cc1c(F)ccc2cc(N)cc(-c3cc4nc(OC[C@@]56CCCN5C/C(=C\F)C6)nc(N5[C@@H]6CC[C@H]5CNC6)c4n4ccnc34)c12 [Example 38, 4-(1-((1R,5S)-3,8-diazabicyclo[3.2.1]octan-8-yl)-3-(((S,Z)-2-(fluoromethylene)tetrahydro-1H-pyrrolizin-7a(5H)-yl)methoxy)imidazo[1′,2′:1,6]pyrido[3,2-d]pyrimidin-6-yl)-5-ethynyl-6-fluoronaphthalen-2-amine] | 7.82 | 9.61 °C | 6.65 °C | 7.92 |
| C#Cc1c(F)ccc2cc(O)cc(-c3cc4nc(OCC5(CN6CCO[C@H](C)C6)CC5)nc(N5C[C@H]6CC[C@@H](C5)N6)c4n4ccnc34)c12 [Example 11, 4-(1-((1R,5S)-3,8-diazabicyclo[3.2.1]octan-3-yl)-3-((1-(((R)-2-methylmorpholino)methyl)cyclopropyl)methoxy)imidazo[1′,2′:1,6]pyrido[3,2-d]pyrimidin-6-yl)-5-ethynyl-6-fluoronaphthalen-2-ol] | 6.76 | 9.74 °C | 2.49 °C | 6.85 |
| C#Cc1c(F)ccc2cc(O)cc(-c3cc4nc(OC[C@@]56CCCN5C/C(=C\F)C6)nc(N5[C@@H]6CC[C@H]5CNC6)c4n4ccnc34)c12 [Example 23, 4-(1-((1R,5S)-3,8-diazabicyclo[3.2.1]octan-8-yl)-3-(((S,Z)-2-(fluoromethylene)tetrahydro-1H-pyrrolizin-7a(5H)-yl)methoxy)imidazo[1′,2′:1,6]pyrido[3,2-d]pyrimidin-6-yl)-5-ethynyl-6-fluoronaphthalen-2-ol] | 7.60 | 9.90 °C | 6.94 °C | 7.62 |
| C#Cc1c(F)ccc2cc(O)cc(-c3c(F)c4nc(OC[C@@]56CCCN5C[C@H](F)C6)nc(N5CC6CCC(C5)N6)c4c4cc(C)oc34)c12 [Example 44, 4-(1-((1R,5S)-3,8-diazabicyclo[3.2.1]octan-3-yl)-5-fluoro-3-(((2R,7aS)-2-fluorotetrahydro-1H-pyrrolizin-7a(5H)-yl)methoxy)-8-methylfuro[3,2-n]quinazolin-6-yl)-5-ethynyl-6-fluoronaphthalen-2-ol] | 7.92 | 14.33 °C | 9.89 °C | 8.15 |
| Cc1cc2c(o1)c(-c1cc(O)cc3ccccc13)cc1nc(OC[C@@]34CCCN3C[C@H](F)C4)nc(N3C[C@H]4CC[C@@H](C3)N4)c12 [Example 41, 4-(1-((1R,5S)-3,8-diazabicyclo[3.2.1]octan-3-yl)-3-(((2R,7aS)-2-fluorotetrahydro-1H-pyrrolizin-7a(5H)-yl)methoxy)-8-methylfuro[3,2-f]quinazolin-6-yl)naphthalen-2-ol] | 6.05 | 5.46 °C | 0.87 °C | 5.99 |
| Cn1cc2c(n1)c(-c1cc(O)cc3ccc(F)c(F)c13)c(F)c1nc(OC[C@@]34CCCN3C[C@H](F)C4)nc(N3C[C@H]4CC[C@@H](C3)N4)c12 [Example 95, 4-(9-((1R,5S)-3,8-diazabicyclo[3.2.1]octan-3-yl)-5-fluoro-7-(((2R,7aS)-2-fluorotetrahydro-1H-pyrrolizin-7a(5H)-yl)methoxy)-2-methyl-2H-pyrazolo[4,3-f]quinazolin-4-yl)-5,6-difluoronaphthalen-2-ol] | 7.09 | 11.83 °C | 7.54 °C | 6.58 |
| C#Cc1c(F)ccc2cc(O)cc(-c3c(F)c4nc(OCC5(CN6CCC7(CC6)CC7(F)F)CC5)nc(N5C[C@H]6CC[C@@H](C5)N6)c4c4cn(C)nc34)c12 [Example 87, 4-(9-((1R,5S)-3,8-diazabicyclo[3.2.1]octan-3-yl)-7-((1-((1,1-difluoro-6-azaspiro[2.5]octan-6-yl)methyl)cyclopropyl)methoxy)-5-fluoro-2-methyl-2H-pyrazolo[4,3-f]quinazolin-4-yl)-5-ethynyl-6-fluoronaphthalen-2-ol] | 8.40 | 14.94 °C | 8.86 °C | 7.96 |
